Measured values taken from patent US11408891B2, “Imaging agent” (University of Lancaster, priority 2017, dated 2022).
Read-outs that look alike come from different tables or passages of the source.

Key:
[1] = test system: HaCaT cells; settings: HaCaT cells with and without microtubule-depolymerising levels of nocodazole (FIG. 2)
Experimental: HaCaT cells were grown on glass coverslips under the same conditions as in described in Steel 2015 referred to herein. […] The coverslips were then washed in PBS and mounted by inversion on a glass slide. Images were captured on a Zeiss LSM 850 Meta laser scanning confocal microscope.

[2] = test system: peroxisomes (pDsRed2-Peroxi Vector labelled compartments); settings: photo-bleaching at 514 nm, complex excited at 405 nm (FIG. 4)
Experimental: FIG. 4: Co-localisation experiment with Clontech pDsRed2-Peroxi Vector. […] Fluorescence micrographs of co-localisation experiment i) Excited at 405 nm pre-photo-bleaching; ii) excited at 514 nm pre photo-bleaching iii) excited at 514 nm post photo-bleaching; iv) Excited at 405 nm post photo-bleaching. HaCaT cells were grown on glass coverslips under the same conditions as in described in Steel 2015 referred to herein. […] The coverslips were then washed in PBS and mounted by inversion on a glass slide. Images were captured on a Zeiss LSM 850 Meta laser scanning confocal microscope.

[3] = test system: peroxisomes in HaCaT cells
Experimental: FIG. 1: Chemical structure of a compound of the invention (and the compound referred to in the figures for example as the platinum complex) and confocal micrograph of HaCaT cells after 10 minutes exposure to 25 μg/ml of the platinum complex (ex 405 nm, emission 505-740 nm). […] A compound of the invention may be prepared as a salt, for example as a sodium salt as described herein, and is used as an imaging agent in a buffer solution. HaCaT cells were grown on glass coverslips under the same conditions as in described in Steel 2015 referred to herein. […] The coverslips were then washed in PBS and mounted by inversion on a glass slide. Images were captured on a Zeiss LSM 850 Meta laser scanning confocal microscope.

[4] = PBS containing compound at 125 μg/ml, 10 minutes at 4° C.

Substance: PtMe3bpy-S-glutathione [compound A]
- motility of the stained compartments [1]: microtubule-dependent motility
- co-localisation with peroxisome marker [2]: platinum complex emission was retained in the same cellular compartments
- staining pattern ([3]; 10 minutes exposure to 25 μg/ml, ex 405 nm, emission 505-740 nm (FIG. 1)): punctate pattern
- staining pattern [3, 4]: punctate staining pattern, characteristic of peroxisomes
- uptake by cells [3, 4]: readily taken up by cells
